Patent US11124818B2 (priority 2017, dated 2021)
pIC50: −log10 of the molar value. Starred links: 1 amine or outer side, 2 acyl side, 3 side chain; linkers in the order of their positions; H or OH if unused. Positions of bridges follow the written chain, without caps; N, C: chain ends. Non-standard residues stand in square brackets, D forms with d. Residues, ends and D or L forms follow the SMILES beside them. *: point of attachment. Adda = CO[C@@H](Cc1ccccc1)[C@@H](C)/C=C(C)/C=C/[C@H](N[*:1])[C@H](C)C(=O)[*:2]; dAsp(3S-Me) = C[C@H](C(=O)[*:3])[C@@H](N[*:1])C(=O)[*:2]; Dolaproine = CO[C@@H]([C@@H]1CCCN1)[C@@H](C)C(=O)O; Dil = CC[C@H](C)[C@H](NC)[C@@H](CC(=O)O)OC; d(γGlu) = O=C(O)[C@@H](CCC(=O)[*:2])N[*:1]; X2 = C[C@@H](N*)[C@@H](O)c1ccccc1; NMeV = CN[C@H](C(=O)O)C(C)C; NMeDha = C=C(NC)C(=O)O

Tests used:
[1] = test system: human tumor cell lines; details: cited from earlier work
[2] = test system: OATP1B1-expressing HeLa and RKO cells; type: cell-based
[3] = test system: type 1 protein phosphatases; details: cited from earlier work
[4] = test system: OATP1B1-expressing HeLa and RKO cells; details: cited from earlier work
[5] = test system: OATP1B3-expressing HeLa and RKO cells; details: cited from earlier work

| Compound | cytotoxic potency [1] [nM] | Ratio 1B1 to 1B3 [2] | pIC50 [3] | pIC50 [4] | pIC50 [5] |
| --- | --- | --- | --- | --- | --- |
| CC[C@H](C)[C@@H]([C@@H](CC(=O)N1CCC[C@H]1[C@H](OC)[C@@H](C)C(=O)N[C@H](C)[C@@H](O)c1ccccc1)OC)N(C)C(=O)[C@@H](NC(=O)[C@@H](NC)C(C)C)C(C)C [Monomethyl auristatin E] (H-[NMeV]V[Dil][Dolaproine]-X2) | 3.9 to 10.3 |  |  |  |  |
| C=C1C(=O)N[C@H](C)C(=O)N[C@@H](CC(C)C)C(=O)N[C@@H](C(=O)O)[C@H](C)C(=O)N[C@@H](CCCNC(=N)N)C(=O)N[C@@H](/C=C/C(C)=C/[C@H](C)[C@H](Cc2ccccc2)OC)[C@H](C)C(=O)N[C@@H](C(=O)O)CCC(=O)N1C [LR, microcystin-LR] (R[Adda][d(γGlu)][NMeDha][dA]L[dAsp(3S-Me)]-OH; lactam N-7) |  | 0.2 | 10.52 | 9.00 | 8.29 |
| C/C=C1/C(=O)N[C@@H](C(=O)O)[C@H](C)C(=O)N[C@@H](CCCNC(=N)N)C(=O)N[C@@H](/C=C/C(C)=C/[C@H](C)[C@H](Cc2ccccc2)OC)[C@H](C)C(=O)N[C@@H](C(=O)O)CCC(=O)N1C [NOD, Nodularin] |  | <0.1 |  | 8.08 | < 7.00 |
